The results in this text go back to US20050090529A1, “3,5 Disubstituted indazole compounds with nitrogen-bearing 5-membered heterocycles, pharmaceutical compositions, and methods for mediating or inhibiting cell proliferation” (PFIZER INC, priority 2003, published 2005).

Molecules are shown by their SMILES. pKi: −log10 of the molar value. ≈ marks a conversion by molar mass, not a printed value.

Data set [1] can be described thus: Measurement of kinetic solubility. The settings on record: 100 mM sodium phosphate buffer, pH 6.5, aqueous buffer, kinetic from dmso stock. Here is the method:
Kinetic solubility was determined with a […] stock solution from the compound(s) of interest. […] Samples and standards were then centrifuged and an aliquot was removed for HPLC analysis. Samples and standards were analyzed by HPLC and a final concentration for the sample was determined based on a one-point calibration curve from the corresponding standard. Results were reported as μg's/mL.

The target in data set [2] is T1, CDK2/Cyclin A (Homo sapiens, UniProt P24941).
T1 construct: made in house; host or cells: CDK2: insect cells (baculovirus); cyclin A: E. coli
The experiment in a line: Inhibition of CDK2/Cyclin A retinoblastoma kinase activity (apparent Ki). The data set is classed as biochemical. Conditions: read-out: CDK2 Ki. Here is the method:
Cyclin-dependent kinase activity was measured by quantifying the enzyme-catalyzed, time-dependent incorporation of radioactive phosphate from [^32P]ATP or [^33P]ATP into a protein substrate. […] Reactions were initiated with enzyme, incubated at 30° C., and terminated after 20 minutes by the addition of ethylenediaminetetraacetic acid (EDTA) to 250 mM. […] Radioactivity was quantified by exposing the dried membranes to a phosphorimager.
Apparent Ki values were measured by assaying enzyme activity in the presence of different inhibitor compound concentrations and subtracting the background radioactivity measured in the absence of enzyme. Inhibition data were fit to an equation for competitive inhibition using Kaleidagraph (Synergy Software), or were fit to an equation for competitive tight-binding inhibition using the software KineTic (BioKin, Ltd.).
A complex of CDK2 and proteolyzed cyclin A was prepared and purified by gel filtration. […] Ki values were measured as described above.

For the molecule `CCNCc1cncc(-c2ccc3[nH]nc(-c4nc(C(=O)NC5CN6CCC5CC6)c[nH]4)c3c2)c1C` (stereo in doubt) [Example 73, N-[(3S)-1-azabicyclo[2.2.2]oct-3-yl]-2-(5-{5-[(ethylamino)methyl]-4-methylpyridin-3-yl}-1H-indazol-3-yl)-1H-imidazole-5-carboxamide], the solubility in data set [1] is > 120 µg/mL. In addition, in data set [2], the pKi is 6.70 to 7.30.
Turning to `CCNCc1cncc(-c2ccc3[nH]nc(-c4ncc[nH]4)c3c2)c1C` [Example 1, 5-(5-ethylaminomethyl-4-methylpyridin-3-yl)-3-(1H-imidazol-2-yl)-1H-indazole], the solubility in data set [1] is > 120 µg/mL. In data set [2], the pKi is > 7.30.
`CCNCc1cncc(-c2ccc3[nH]nc(-c4nc(-c5ccccc5)c(C(=O)NCC)[nH]4)c3c2)c1C` [Example 2, 2-[5-(5-Ethylaminomethyl-4-methyl-pyridin-3-yl)-1H-indazol-3-yl]-5-phenyl-3H-imidazole-4-carboxylic acid ethylamide] came in with a solubility in data set [1] of 20 to 120 µg/mL (≈ 41.7 to 250 µM). Also, the pKi in data set [2] is 6.70 to 7.30.
Taken in the same sequence, the figures for `CCNCc1cncc(-c2ccc3[nH]nc(-c4nc(-c5ccccc5)c(C(=O)NCCOC)[nH]4)c3c2)c1C` [Example 3, 2-[5-(5-Ethylaminomethyl-4-methyl-pyridin-3-yl)-1H-indazol-3-yl]-5-phenyl-3H-imidazol-4-carboxylic acid (2-methoxy-ethyl)-amide] were 20 to 120 µg/mL (≈ 39.2 to 235 µM) and 6.70 to 7.30.
With `CCNCc1cncc(-c2ccc3[nH]nc(-c4nc(-c5ccccc5)c(C(=O)N5CCCC5)[nH]4)c3c2)c1C` [Example 4, {2-[5-(5-Ethylaminomethyl-4-methyl-pyridin-3-yl)-1H-indazol-3-yl]-5-phenyl-3H-imidazol-4-yl}-pyrrolidin-1-yl-methanone], in data set [1], the solubility is 20 to 120 µg/mL (≈ 39.6 to 237 µM). Further, the pKi in data set [2] was 6.70 to 7.30.
For the molecule `CCNCc1cncc(-c2ccc3[nH]nc(-c4nc(-c5ccccc5)c(C(=O)NCc5ccccc5)[nH]4)c3c2)c1C` [Example 5, 2-[5-(5-Ethylaminomethyl-4-methyl-pyridin-3-yl)-1H-indazol-3-yl]-5-phenyl-3H-imidazole-4-carboxylic acid benzylamide], in data set [1], the solubility lay within 20 to 120 µg/mL (≈ 36.9 to 222 µM). Also, in data set [2], the pKi was > 7.30.
`CCNCc1cncc(-c2ccc3[nH]nc(-c4nc(-c5ccccc5)c(C(=O)NCC(C)C)[nH]4)c3c2)c1C` [Example 7, 2-[5-(5-Ethylaminomethyl-4-methyl-pyridin-3-yl)-1H-indazol-3-yl]-5-phenyl-3H-imidazole-4-carboxylic acid isobutyl-amide] came in with a solubility in data set [1] of 20 to 120 µg/mL (≈ 39.4 to 236 µM). For the same molecule, the pKi in data set [2] was 6.70 to 7.30.
`CCNCc1cncc(-c2ccc3[nH]nc(-c4nc(-c5ccccc5)c(C(=O)NC5CCCC5)[nH]4)c3c2)c1C` [Example 8, 2-[5-(5-Ethylaminomethyl-4-methyl-pyridin-3-yl)-1H-indazol-3-yl]-5-phenyl-3H-imidazole-4-carboxylic acid cyclopentylamide]: in data set [1], the solubility was 20 to 120 µg/mL (≈ 38.5 to 231 µM). For the same molecule, the pKi in data set [2] is 6.70 to 7.30.
On the same counts, the results for `CCNCc1cncc(-c2ccc3[nH]nc(-c4nc(-c5ccccc5)c(C(=O)N5CCCCC5)[nH]4)c3c2)c1C` [Example 9, {2-[5-(5-Ethylaminomethyl-4-methyl-pyridin-3-yl)-1H-indazol-3-yl]-5-phenyl-3H-imidazol-4-yl}-piperidin-1-yl-methanone] are 20 to 120 µg/mL (≈ 38.5 to 231 µM) and < 6.70.
Turning to `CCNCc1cncc(-c2ccc3[nH]nc(-c4nc(-c5ccccc5)c(C(=O)N5CCOCC5)[nH]4)c3c2)c1C` [Example 10, {2-[5-(5-Ethylaminomethyl-4-methyl-pyridin-3-yl)-1H-indazol-3-yl]-5-phenyl-3H-imidazol-4-yl}-morpholin-4-yl-methanone], the solubility in data set [1] lay within 20 to 120 µg/mL (≈ 38.3 to 230 µM). Besides, the pKi in data set [2] was < 6.70.
Turning to `CCNCc1cncc(-c2ccc3[nH]nc(-c4nc(-c5ccccc5)c(C(=O)NCCCOC)[nH]4)c3c2)c1C` [Example 11, 2-[5-(5-Ethylaminomethyl-4-methyl-pyridin-3-yl)-1H-indazol-3-yl]-5-phenyl-3H-imidazole-4-carboxylic acid (3-methoxy-propyl)-amide], the solubility in data set [1] was > 120 µg/mL. The pKi in data set [2] is 6.70 to 7.30.
For `CCNCc1cncc(-c2ccc3[nH]nc(-c4nc(-c5ccccc5)c(C(=O)N(C)C5CCCCC5)[nH]4)c3c2)c1C` [Example 13, 2-[5-(5-Ethylaminomethyl-4-methyl-pyridin-3-yl)-1H-indazol-3-yl]-5-phenyl-3H-imidazole-4-carboxylic acid cyclohexyl-methyl-amide], the solubility in data set [1] lay in the range of 20 to 120 µg/mL (≈ 36.5 to 219 µM). In data set [2], the negative logarithm of the Ki (pKi) was < 6.70.
Regarding `CCNCc1cncc(-c2ccc3[nH]nc(-c4nc(-c5ccccc5)c(C(=O)N5CCC[C@H]5COC)[nH]4)c3c2)c1C` [Example 14, {2-[5-(5-Ethylaminomethyl-4-methyl-pyridin-3-yl)-1H-indazol-3-yl]-5-phenyl-3H-imidazol-4-yl}-(2-methoxymethyl-pyrrolidin-1-yl)-methanone], the solubility in data set [1] was > 120 µg/mL. Also, the pKi in data set [2] is < 6.70.
`CCNCc1cncc(-c2ccc3[nH]nc(-c4nc(-c5ccccc5)c(C(=O)N5CCC[C@@H]5COC)[nH]4)c3c2)c1C` [Example 15, {2-[5-(5-Ethylaminomethyl-4-methyl-pyridin-3-yl)-1H-indazol-3-yl]-5-phenyl-3H-imidazol-4-yl}-(2-methoxymethyl-pyrrolidin-1-yl)-methanone]: the solubility in data set [1] is > 120 µg/mL. Also, the pKi in data set [2] was < 6.70.
`CCCc1nc(-c2n[nH]c3ccc(-c4cncc(CNCC)c4C)cc23)[nH]c1C` [Example 19, Ethyl-{4-methyl-5-[3-(5-methyl-4-propyl-1H-imidazol-2-yl)-1H-indazol-5-yl]-pyridin-3-ylmethyl}-amine] returned a solubility in data set [1] of 20 to 120 µg/mL (≈ 51.5 to 309 µM). The pKi in data set [2] was > 7.30.
On the same counts, the results for `CCNCc1cncc(-c2ccc3[nH]nc(-c4nc(CC(C)C)c(C)[nH]4)c3c2)c1C` [Example 20, Ethyl-{5-[3-(4-isobutyl-5-methyl-1H-imidazol-2-yl)-1H-indazol-5-yl]-4-methyl-pyridin-3-ylmethyl}-amine] are 20 to 120 µg/mL (≈ 49.7 to 298 µM) and > 7.30.
In the case of `CCNCc1cncc(-c2ccc3[nH]nc(-c4nc(CC)c(CC)[nH]4)c3c2)c1C` [Example 22, {5-[3-(4,5-Diethyl-1H-imidazol-2-yl)-1H-indazol-5-yl]-4-methyl-pyridin-3-ylmethyl}-ethyl-amine], the solubility in data set [1] was > 120 µg/mL. Besides, the pKi in data set [2] is > 7.30.
As to `CCNCc1cncc(-c2ccc3[nH]nc(-c4nc(CC)c(C)[nH]4)c3c2)c1C` [Example 23, Ethyl-{5-[3-(4-ethyl-5-methyl-1H-imidazol-2-yl)-1H-indazol-5-yl]-4-methyl-pyridin-3-ylmethyl}-amine], in data set [1], the solubility was > 120 µg/mL. Also, in data set [2], the pKi is > 7.30.
Take `CCNCc1cncc(-c2ccc3[nH]nc(-c4nc(C)c(C)[nH]4)c3c2)c1C` [Example 24, {5-[3-(4,5-Dimethyl-1H-imidazol-2-yl)-1H-indazol-5-yl]-4-methyl-pyridin-3-ylmethyl}-ethyl-amine]: in data set [1], the solubility is > 120 µg/mL. In addition, the pKi in data set [2] is > 7.30.
On the same counts, the results for `CCNCc1cncc(-c2ccc3[nH]nc(-c4nc(-c5ccc(Cl)cc5)c(C)[nH]4)c3c2)c1C` [Example 25, (5-{3-[4-(4-Chloro-phenyl)-5-methyl-1H-imidazol-2-yl]-1H-indazol-5-yl}-4-methyl-pyridin-3-ylmethyl)-ethyl-amine] are 20 to 120 µg/mL (≈ 43.8 to 263 µM) and > 7.30.
